Laboratory results published in article PMC3774728, “Identification of the Plant Compound Geraniin as a Novel Hsp90 Inhibitor” (PLoS ONE, 2013).

Key:
[1] = molecular target: T1, Hsp90α chaperone activity (Homo sapiens, UniProt P07900); test: Citrate synthase thermal-induced aggregation assay (chaperone activity); format: biochemical; conditions: 0.075 µM CS, 0.075 µM Hsp90α, 0.3 µM ATP, four-fold molar excess (0.3 µM) compound, 43°C
T1 construct: purchased Assay Designs (Ann Arbor, MI, USA)
Method: Chaperone activity was evaluated by monitoring the thermal−induced aggregation of citrate synthase (CS) (0.075 µM), as reported elsewhere, in the absence or presence of a stoichiometric amount of Hsp90α and 0.3 µM ATP, and with or without a four−fold molar excess of each testing compound. Aggregation was initiated by unfolding CS incubating the protein in 40 mM HEPES–KOH, pH 7.5 at 43°C. Aggregation was monitored by measuring light scattering at right angles with the Perkin Elmer LS 55 fluorimeter in stirred and thermostatted quartz cells. Both the emission and excitation wavelengths were set at 500 nm, while the band–pass was 2 nm. Kinetics traces reported are the averages of two separate measurements.
Figure 3 Inhibition of Hsp90α activity. ATPase activity of the chaperone was evaluated in the presence of different concentrations of geraniin, 17-AAG and HA (A). Data are reported as the residual ATPase activity (%) compared to that observed for an untreated sample. Data are the mean of three independent experiments performed in triplicate and were analyzed by t test (HA vs testing compounds): The error bar represents the standard deviation of nine measurements, while * indicates significance at P<0.01. Aggregation kinetics of citrate synthase (CS) at 43°C determined by light scattering (B). […]

recombinant Hsp90α = molecular target: T2, recombinant Hsp90α (Homo sapiens, UniProt P07900); test: Limited proteolysis-mass spectrometry of Hsp90α/geraniin complex; conditions: trypsin or chymotrypsin, 5:1 molar excess of geraniin, 37°C
T2 construct: purchased Assay Designs (Ann Arbor, MI, USA)
Method: Limited proteolysis experiments were performed on recombinant Hsp90α at 37°C, PBS 0.1% DMSO, using trypsin or chymotrypsin as proteolytic agents; 30 µL of a 3 µM Hsp90α solution were used for each experiment. Binary complex Hsp90α/geraniin was formed by incubating the protein with a 5∶1 molar excess of geraniin at 37°C for 15 min prior to proteolytic enzyme addition. Both Hsp90 and Hsp90/geraniin complex were digested using a 1∶100 (w/w) enzyme to substrate ratio. The extent of the reactions was monitored on a time−course basis by sampling the incubation mixture after 5, 15, and 30 min of digestion. Samples were analyzed by MALDITOF/MS using a MALDI micro MX (Waters). Mass data were elaborated using the Masslynx software (Waters). Preferential hydrolysis sites on Hsp90α under different conditions were identified on the basis of the fragments released during enzymatic digestion.
In an effort to identify the Hsp90α region involved in geraniin binding, a limited proteolysis−mass spectrometry−based strategy was used for the structural analysis of the Hsp90α/geraniin complex. This approach is based on the evidence that exposed, weakly structured, and flexible regions of a protein can be recognized by a proteolytic enzyme, [30]. […]

[2] = test system: PBMC (human Peripheral Blood Mononuclear Cells); test: Cytotoxicity in PHA-stimulated proliferating PBMC; format: cell-based; conditions: 24 h, trypan blue, only at high doses
Method: To ensure logarithmic growth, cells were subcultured every two days. As control cells, human peripheral blood mononuclear cells (PBMC) were isolated from buffy coats of healthy donors (kindly provided by the Blood Center of the Hospital of Battipaglia, Salerno, Italy) by using standard Ficoll−Hypaque gradients. […] Proliferation of PBMC was induced by phytohemagglutinin (PHA) (10 µg mL^−1). […] Stock solutions of geraniin (50 mM in DMSO) and 17-AAG (10 mM in DMSO) were stored a −20°C in the dark and diluted just before addition to the sterile culture medium. In all the experiments, the final concentration of DMSO was 0.10% (v/v).
The number of viable cells was determined by using a [3–4,5-dimethyldiazol-2-yl]-2,5-diphenyl tetrazolium bromide (MTT, Sigma-Aldrich) conversion assay, according to the method described by Mosmann. Briefly, following the treatment, 25 µL of MTT (5 mg/mL in PBS) was added and the cells were incubated for additional 3 h at 37°C. Thereafter, cells were lysed and suspended with 100 µL of buffer containing 50% (v/v) N,N-dimethylformamide, 20% SDS (pH 4.5). The absorbance was measured with a microplate reader (Titertek multiskan MCC7340, LabSystems, Vienna, VA, USA) equipped with a 620 nm filter. Cell population growth inhibition was tested by cytometric counting (trypan blu exclusion).

- effect on citrate synthase aggregation kinetics in the presence of Hsp90α [1]: the curve slope clearly increased
Structure (SMILES): O=C1O[C@H]2[C@@H]3OC(=O)c4cc(O)c(O)c(O)c4-c4c(cc(O)c(O)c4O)C(=O)OC[C@H]2O[C@@H](OC(=O)c2cc(O)c(O)c(O)c2)[C@@H]3OC(=O)c2cc(O)c(O)c3c2[C@@H]2C1=CC(=O)[C@](O)(O3)C2(O)O [Compound 54, geraniin]
- Hsp90α region involved in binding (recombinant Hsp90α): overall protection of the N−terminal region from proteolysis
- cytotoxic effects in control PBMC [2]: Minimal cytotoxic effects
